PubChem BioAssay AID2060488 (Molecular Pharmacology Branch, DTP, NCI, 2025)

Tested on: 966289-007-R4-J1-PDC complex spheroid viability
Experiment: Anticancer human tumor 966289-007-R4-J1-PDC patient-derived pancreatic adenocarcinoma cell line growth inhibition [GQUAD]
Conditions: for IC50: curve of first compound; for viability, T/C: stronger effect = lower value; active = viability on the fitted dose curve at most 10% of control; inactive = the rest
Method in brief: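 Multi-cell-type spheroids of tumor cells with HUVEC and mesenchymal stem cells, treated with drug combinations. Concentrations descend in half-log steps from near clinical Cmax, or from 10 microM where Cmax is unknown; viability read-out.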

[1] = second compound 0.0316 µM, first compound 0.0316 µM
[2] = second compound 0.0316 µM, first compound 0.316 µM
[3] = second compound 0.1 µM, first compound 0.0316 µM
[4] = second compound 0.1 µM, first compound 0.316 µM
[5] = second compound 0.316 µM, first compound 0.0316 µM
[6] = second compound 0.316 µM, first compound 0.316 µM
[7] = second compound 1 µM, first compound 0.0316 µM
[8] = second compound 1 µM, first compound 0.316 µM
[9] = second compound 3.16 µM, first compound 0.0316 µM
[10] = second compound 3.16 µM, first compound 0.316 µM
[11] = second compound 10 µM, first compound 0.0316 µM
[12] = second compound 10 µM, first compound 0.316 µM
[13] = second compound 0.0316 µM, first compound 0.1 µM
[14] = second compound 0.0316 µM, first compound 1 µM
[15] = second compound 0.0316 µM, first compound 3.16 µM
[16] = second compound 0.0316 µM, first compound 10 µM
[17] = second compound 0.1 µM, first compound 0.1 µM
[18] = second compound 0.1 µM, first compound 1 µM
[19] = second compound 0.1 µM, first compound 3.16 µM
[20] = second compound 0.1 µM, first compound 10 µM
[21] = second compound 0.316 µM, first compound 0.1 µM
[22] = second compound 0.316 µM, first compound 1 µM
[23] = second compound 0.316 µM, first compound 3.16 µM
[24] = second compound 0.316 µM, first compound 10 µM
[25] = second compound 1 µM, first compound 0.1 µM
[26] = second compound 1 µM, first compound 1 µM
[27] = second compound 1 µM, first compound 3.16 µM
[28] = second compound 1 µM, first compound 10 µM
[29] = second compound 3.16 µM, first compound 0.1 µM
[30] = second compound 3.16 µM, first compound 1 µM
[31] = second compound 3.16 µM, first compound 3.16 µM
[32] = second compound 3.16 µM, first compound 10 µM
[33] = second compound 10 µM, first compound 0.1 µM
[34] = second compound 10 µM, first compound 1 µM
[35] = second compound 10 µM, first compound 3.16 µM
[36] = second compound 10 µM, first compound 10 µM
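Note: spheroids exposed to the agents for seven days before readout.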
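Throughout, for viability, T/C: percent viability relative to DMSO vehicle control wells taken as 100%.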

Cn1ncnc1[C@H]1c2n[nH]c(=O)c3cc(F)cc(c23)N[C@@H]1c1ccc(F)cc1 + Cc1[nH]c2ccc(F)cc2c1-c1nc2c3cccnc3c3ncccc3c2[nH]1
105 nM: IC50 (second compound 0.316 µM)
76.3 nM: IC50 (second compound 3.16 µM)
101 nM: IC50 (second compound 0.0316 µM)
63.6 nM: IC50 (second compound 10 µM)
89.8 nM: IC50 (second compound 0.1 µM)
inactive: viability, T/C (second compound 0.0316 µM, first compound 0.000999 µM) 108% | viability, T/C (second compound 0.0316 µM, first compound 0.00316 µM) 95.8% | viability, T/C (second compound 0.0316 µM, first compound 0.00999 µM) 105% | viability, T/C [1] 96.8% | viability, T/C (second compound 0.0316 µM, first compound 0.0999 µM) 50.3% | viability, T/C [2] 21% | viability, T/C (second compound 0.1 µM, first compound 0.000999 µM) 101% | viability, T/C (second compound 0.1 µM, first compound 0.00316 µM) 99.4% | viability, T/C (second compound 0.1 µM, first compound 0.00999 µM) 106% | viability, T/C [3] 99.3% | viability, T/C (second compound 0.1 µM, first compound 0.0999 µM) 44.9% | viability, T/C [4] 20% | viability, T/C (second compound 0.316 µM, first compound 0.000999 µM) 101% | viability, T/C (second compound 0.316 µM, first compound 0.00316 µM) 107% | viability, T/C (second compound 0.316 µM, first compound 0.00999 µM) 108% | viability, T/C [5] 105% | viability, T/C (second compound 0.316 µM, first compound 0.0999 µM) 51.5% | viability, T/C [6] 18.6% | viability, T/C (second compound 1 µM, first compound 0.000999 µM) 101% | viability, T/C (second compound 1 µM, first compound 0.00316 µM) 103% | viability, T/C (second compound 1 µM, first compound 0.00999 µM) 112% | viability, T/C [7] 102% | viability, T/C (second compound 1 µM, first compound 0.0999 µM) 58.4% | viability, T/C [8] 18.6% | viability, T/C (second compound 3.16 µM, first compound 0.000999 µM) 105% | viability, T/C (second compound 3.16 µM, first compound 0.00316 µM) 105% | viability, T/C (second compound 3.16 µM, first compound 0.00999 µM) 110% | viability, T/C [9] 92.8% | viability, T/C (second compound 3.16 µM, first compound 0.0999 µM) 36.9% | viability, T/C [10] 12.1% | viability, T/C (second compound 10 µM, first compound 0.000999 µM) 106% | viability, T/C (second compound 10 µM, first compound 0.00316 µM) 105% | viability, T/C (second compound 10 µM, first compound 0.00999 µM) 109% | viability, T/C [11] 88.3% | viability, T/C (second compound 10 µM, first compound 0.0999 µM) 25.3% | viability, T/C [12] 11.6%
127 nM: IC50 (second compound 1 µM)

CCCS(=O)(=O)Nc1ccc(F)c(C(=O)c2c[nH]c3ncc(-c4ccc(Cl)cc4)cc23)c1F + Cc1[nH]c2ccc(F)cc2c1-c1nc2c3cccnc3c3ncccc3c2[nH]1
7250 nM: IC50 (second compound 3.16 µM)
8560 nM: IC50 (second compound 0.1 µM)
8670 nM: IC50 (second compound 1 µM)
7830 nM: IC50 (second compound 10 µM)
8400 nM: IC50 (second compound 0.316 µM)
inactive: viability, T/C [1] 111% | viability, T/C [13] 105% | viability, T/C [2] 116% | viability, T/C [14] 113% | viability, T/C [15] 113% | viability, T/C [16] 46.3% | viability, T/C [3] 101% | viability, T/C [17] 110% | viability, T/C [4] 113% | viability, T/C [18] 112% | viability, T/C [19] 111% | viability, T/C [20] 40.5% | viability, T/C [5] 101% | viability, T/C [21] 108% | viability, T/C [6] 110% | viability, T/C [22] 114% | viability, T/C [23] 112% | viability, T/C [24] 39.3% | viability, T/C [7] 97.6% | viability, T/C [25] 112% | viability, T/C [8] 115% | viability, T/C [26] 114% | viability, T/C [27] 116% | viability, T/C [28] 41.4% | viability, T/C [9] 110% | viability, T/C [29] 114% | viability, T/C [10] 115% | viability, T/C [30] 110% | viability, T/C [31] 108% | viability, T/C [32] 27.6% | viability, T/C [11] 104% | viability, T/C [33] 111% | viability, T/C [12] 115% | viability, T/C [34] 112% | viability, T/C [35] 112% | viability, T/C [36] 33.5%
9390 nM: IC50 (second compound 0.0316 µM)

Nc1ccn(C2OC(CO)C(O)C2(F)F)c(=O)n1 (stereo unspecified) + CN(C)c1ccc(Nc2c3ccc(NC(=O)CCN4CCCC4)cc3nc3cc(NC(=O)CCN4CCCC4)ccc23)cc1
active: viability, T/C [13] 1.18% | viability, T/C [2] 0.88% | viability, T/C [14] 0.96% | viability, T/C [15] 0.85% | viability, T/C [16] 0.89% | viability, T/C [17] 2.18% | viability, T/C [4] 0.86% | viability, T/C [18] 1.06% | viability, T/C [19] 0.89% | viability, T/C [20] 1.03% | viability, T/C [5] 8.99% | viability, T/C [21] 1.42% | viability, T/C [6] 0.99% | viability, T/C [22] 0.97% | viability, T/C [23] 0.84% | viability, T/C [24] 0.93% | viability, T/C [7] 9.78% | viability, T/C [25] 1.73% | viability, T/C [8] 1.22% | viability, T/C [26] 1.01% | viability, T/C [27] 0.89% | viability, T/C [28] 0.91% | viability, T/C [9] 8.33% | viability, T/C [29] 1.17% | viability, T/C [10] 1.01% | viability, T/C [30] 0.9% | viability, T/C [31] 1.5% | viability, T/C [32] 0.99% | viability, T/C [11] 5.04% | viability, T/C [33] 1.02% | viability, T/C [12] 1.04% | viability, T/C [34] 0.83% | viability, T/C [35] 0.85% | viability, T/C [36] 0.85%
< 31.6 nM: IC50 (second compound 0.0316 µM) | IC50 (second compound 0.1 µM) | IC50 (second compound 0.316 µM) | IC50 (second compound 1 µM) | IC50 (second compound 3.16 µM) | IC50 (second compound 10 µM)
inactive: viability, T/C [1] 14% | viability, T/C [3] 10.8%
